{"source": "patent US12485078B2", "about": "“Personal dental care product for caries treatment” (Credentis AG, priority 2016, dated 2025)", "key": {"[1]": {"assay": "self-assembling kinetic by measurements of elastic modulus G' (FIG. 6)", "format": "physicochemical", "settings": "15 mg/ml; neutral pH; independent of ionic strength (buffers 140-165 mM); 0.1% strain, 37° C., 1 rad/second", "procedure": "P11-4 was prepared at 15 mg/ml with different buffer compositions (see below) measured at 0.1% strain, 37° C. and a frequency of 1 rad/second. Self-assembly of peptide monomers to polymers takes more than 5 min independent of the used ionic strength at neutral pH. • Squares (top line of symbols)−NaCl: Tris (0.055 M)+NaCl, final ionic strength 142 mM; • Artificial saliva (second line of symbols from top): Tris, Ca(NO3)2, KH2PO4 (ratio 0.77:0.14:0.08), ionic strength 142 mM; • Dulbecco's Modified Eagle Medium (DMEM): NaCl, NaHCO3, KCl, CaCl2, MgSO4 (ratio 0.66:0.4:0.05:0.02:0.007), ionic strength 165 mM; • MgSO4: 0.055 M Tris+0.192 M MgSO4 0.14 M Ionic strength"}, "[2]": {"assay": "Penetration of P11-4 (200 ppm, spiked with 10 ppm ATTO647-P11-4, 25 mM TRIS) into artificial subsurface lesions, confocal microscopy", "set-up": "species or system human", "procedure": "Creation of artificial lesions on extracted human molar teeth was performed as described by Lo et al. 2010 (J Dent. 38(4):352-359). To define the position of the demineralized subsurface area (i.e., artificial carious lesion or white spot), the tooth was covered with colourless nail varnish, leaving a window of approximately 4×4 mm. The tooth was placed in demineralization buffer (2.2 mM CaCl2, 2.2 mM NaH2PO4, 50 mM acetic acid; pH adjusted with 1 M KOH to 4.4) for 3 d at 37° C. To ensure that all pores are open, as in a typical active caries lesion, the resulting subsurface lesions were treated with 10 μL of 2% NaClO (incubation for 1 min), rinsed, and air-dried at room temperature.\n• A 200 ppm (i.e., 200 μg/ml) solution of P11-4 (SEQ ID NO: 2), spiked with 10 ppm ATTO647-P11-4 (fluorescence labelled P11-4 (SEQ ID NO: 6): Ac-QQRFEWEFEQQSGSGC-(ATTO647)-NH2), i.e., 1:20, in 25 mM TRIS buffer was prepared at different pH, in particular, at 8.4 or 8.5 or 6.3, 6.5 or 6.8) • As specified in the table below, tooth were optionally pretreated, e.g., by incubation in human saliva for one day (about 24 hours), optionally followed by 5 min sonication (258 hz with a sonic toothbrush, Sonicare Diamond Clean® (Philips)) or by immersion in 2% NaClO for 1 min. • Tooth were immersed in the P11-4 solution for a defined period of time, 1, 2 or 5 min, and then removed and washed in water for 10 min or in remineralization buffer (2 mM Ca(NO3), 1.2 mM KHPO4, and 60 mM Tris/HCl, pH adjusted to 7.4 with 1 M KOH) for 4 days and/or 6 days. • Confocal assessment after 1, 2 or 5 min incubation was carried out while the teeth were in P11-4 solution, and optionally, after washing in water or in remineralization buffer after 10 min or 4 or 6 days. c) Confocal Microscopy\nSamples were placed in a μ-slide I (ibidi, Martinsried) in dest. water and analyzed by a confocal laser microscope (Olympus IX81). The recorded stack of four 2-dimensional images each projected the lesion volume of 51.4 μm thickness, giving a total assessment depth of 205 μm (objective: UPLSAPO 20×/NA 0.75; helium-neon gas laser; excitation: 633 nm and emission: 668 nm). Images were analyzed by Olympus software (FluoView FV1000)."}, "[3]": {"assay": "self-assembling kinetic by quartz crystal microbalance with dissipation monitoring (QCM-D, FIG. 7)", "format": "physicochemical", "settings": "10 mg/ml P11-4 in PBS pH 8.5 on P11-4 coated amine-coupling sensor", "procedure": "P11-4 peptide was layered on the surface of the amine-coupling sensor at 1 mg/ml in PBS at pH8.5. After 1 hour and 1 hour 25 minutes, the sensor was washed with PBS pH 8.5. After 1 hour and 38 minutes, 10 mg/ml P11-4 peptide in PBS pH 8.5 were injected. After 2 hours, 0.1 M HCl were injected to induce self-assembly.\nIt can be seen that essentially complete self-assembly has occurred about 30 min after injection of 0.1 M HCl. Resonance frequency F (left scale, Hz) and energy dissipation factor D (right scale), triangle=frequency, square=dissipation are shown."}, "[4]": {"assay": "pH at which the peptide starts to undergo self-assembly", "format": "physicochemical", "settings": "in solution", "description": "As used herein, the pH at which the self-assembling peptide starts to undergo self-assembly refers to the pH below which a significant extent of self-assembly of the peptides in solution is observed, which means that at least about 25%, about 30%, about 35%, about 40%, about 45%, about 50%, about 55%, about 60%, about 65%, about 70%, about 75%, about 80%, about 85%, about 90%, about 95%, about 99% or even about 100% of the peptides found in the dental care product are assembled. In a preferred embodiment, at least about 25% of the peptides found in the dental care product are assembled below the pH at which the peptide starts to undergo self-assembly.\nFurther, the skilled person is aware of numerous methods to determine the pH at which a peptide of the present invention will start self-assembly at a given ionic strength. Suitable methods are denoted e.g. in a publication by Aggeli et al. (2003, J Am Chem Soc, 125, 9619-9628)."}}, "note": "No end group written: not given here."}
{"sequence": "QQRFEWEFEQQ [self-assembling peptide of 11 amino acids]", "values": [{"measurement": "time for self-assembly of peptide monomers to polymers", "setting": "[1]", "result": "more than 5 min"}, {"measurement": "peptide in the lesions after 4 days' incubation in remineralization buffer", "setting": "[2]; pH8.5, FIG. 9Be", "result": "Lower but significant amounts"}, {"measurement": "peptide in the lesions after 1 min incubation", "setting": "[2]; pH8.5, teeth 10 and 1, FIG. 9Bb", "result": "already detectable"}, {"measurement": "peptide in the lesions after 2 min or 5 min incubation", "setting": "[2]; pH8.5, teeth 10 and 1, FIG. 9Bc, 9Bd", "result": "most peptide was detected"}, {"measurement": "effect of incubation in remineralization buffer after contact with P11-4 containing solution", "setting": "[2]; remineralization buffer versus water wash (tooth 10 versus tooth 2)", "result": "improves maintenance of the self-assembling peptide in the lesion"}, {"measurement": "effect of pellicle formation by saliva on infiltration at pH 6.3-6.8", "setting": "[2]; teeth 3, 13", "result": "further decreased infiltration by peptide"}, {"measurement": "peptide detectable in the lesions after incubation at pH 6.3-6.8 (polymerized form)", "setting": "[2]; teeth 4, 12, 3, 13, versus incubation at pH 8.4 or 8.5", "result": "lower amounts of peptide"}, {"measurement": "negative effect of pellicle after cleaning by sonication or NaClO", "setting": "[2]; teeth ZR3 (sonication) and ZR2 (NaClO), after incubation with human saliva", "result": "could be compensated for"}, {"measurement": "effect of sonification pretreatment before incubation on peptide in the lesions", "setting": "[2]; tooth ZR1, pH 8.5", "result": "increased presence of peptide in the lesions"}, {"measurement": "peptide detected after pellicle formation and cleaning by sonification", "setting": "[2]; versus no pre-incubation with saliva", "result": "even higher amounts than without pre-incubation with saliva"}, {"measurement": "time to essentially complete self-assembly after injection of 0.1 M HCl", "setting": "[3]", "result": "about 30 min"}, {"measurement": "pH at which the self-assembling peptides start to undergo self-assembly", "setting": "[4]", "result": "about 7.5"}]}
